One experiment concerns vesicular stomatitis virus particles (VSV) pseudotyped with EboV Zaire GP. In words: microbe, parasite or virus in culture. The following applies: Vesicular stomatitis virus. It is filed as cell-based.
By IC50 is commonly meant the midpoint of a concentration-inhibition curve. Consider `O=C(CNC(=O)C12CC3(F)CC(F)(CC(F)(C3)C1)C2)N1CCN(Cc2ccccc2OCc2ccc(Br)cc2)CC1` [Compound 1255], for which the concentration for half-maximal inhibition (IC50) came to 400 nM.

Consider `CNS(=O)(=O)c1ccc(COc2ccccc2CN2CCN(C(=O)CNC(=O)CC34CC5CC(CC(C5)C3)C4)CC2)cc1` [Compound 1257], for which the midpoint of inhibition, the IC50, lay at 300 nM.

In turn, `CN(C)S(=O)(=O)c1ccc(COc2ccccc2CN2CCN(C(=O)CNC(=O)CC34CC5CC(CC(C5)C3)C4)CC2)cc1` [Compound 1258] showed a concentration for half-maximal inhibition (IC50) of 400 nM.

Molecule `N#Cc1ccc(COc2ccccc2CN2CCN(C(=O)CNC(=O)CC34CC5CC(CC(C5)C3)C4)CC2)cc1` [Compound 1259] had an IC50 of 700 nM.

For `NC(=O)c1ccc(COc2ccccc2CN2CCN(C(=O)CNC(=O)CC34CC5CC(CC(C5)C3)C4)CC2)cc1` [Compound 1260], inhibition was half-maximal at 700 nM (IC50).

`COC(=O)c1ccc(COc2ccccc2CN2CCN(C(=O)CNC(=O)CC3CCC(F)(F)CC3)CC2)cc1` [Compound 1275, Methyl 4-((2-((4-((2-(4,4-difluorocyclohexyl)acetyl)glycyl)piperazin-1-yl)methyl)phenoxy)methyl)benzoate] yielded an IC50 of 50 nM.

In turn, `COC(=O)c1ccc(COc2ccccc2CN2CCN(C(=O)CNC(=O)CC34CC5CC(C3)CC(C(=O)O)(C5)C4)CC2)cc1` [Compound 1277, (1s,3r,5R,7S)-3-(2-((2-(4-(2-((4-(Methoxycarbonyl)benzyl)oxy)benzyl)piperazin-1-yl)-2-oxoethyl)amino)-2-oxoethyl)adamantane-1-carboxylic acid] gave an IC50 above 2000 nM.

Regarding `COC(=O)c1ccc(COc2ccccc2CN2CCN(C(=O)CNC(=O)CC(C)(C)C(F)(F)F)CC2)cc1` [Compound 1278, Methyl 4-((2-((4-((4,4,4-trifluoro-3,3-dimethylbutanoyl)glycyl)piperazin-1-yl)methyl)phenoxy)methyl)benzoate], the half-inhibitory concentration (IC50) is above 2000 nM.

As to `COC(=O)c1ccc(COc2ccccc2CN2CCN(C(=O)CNC(=O)CC(C)(C)c3ccccc3)CC2)cc1` [Compound 1279], half-maximal inhibition (IC50) was put at 1500 nM.

With `COC(=O)c1ccc(COc2ccccc2CN2CCN(C(=O)CNC(=O)C3CCC(F)(F)CC3)CC2)cc1` [Compound 1298], inhibition was half-maximal at 1500 nM (IC50).

On to `CC(=O)N1CCC(COc2ccc(Cl)cc2CN2CCN(C(=O)CNC(=O)CC34CC5CC(CC(C5)C3)C4)CC2)CC1` [Compound 1301, N-(2-(4-(2-((1-acetylpiperidin-4-yl)methoxy)-5-chlorobenzyl)piperazin-1-yl)-2-oxoethyl)-2-((3r,5r,7r)-adamantan-1-yl)acetamide], for which the 50% inhibitory concentration (IC50) is 400 nM.

Turning to `COC(=O)COc1ccc(Cl)cc1CN1CCN(C(=O)CNC(=O)CC23CC4CC(CC(C4)C2)C3)CC1` [Compound 1302, Methyl 2-(2-((4-((2-((1R,3R,5S)-adamantan-1-yl)acetyl)glycyl)piperazin-1-yl)methyl)-4-chlorophenoxy)acetate], the IC50 was above 2000 nM.

As for `COC(=O)CCCOc1ccc(Cl)cc1CN1CCN(C(=O)CNC(=O)CC23CC4CC(CC(C4)C2)C3)CC1` [Compound 1303, Methyl 4-(2-((4-((2-((1R,3R,5S)-Adamantan-1-yl)acetyl)glycyl)piperazin-1-yl)methyl)-4-chlorophenoxy)butanoate], the IC50 is around 2000 nM.

For the molecule `Nc1ncc(Cl)cc1CN1CCN(C(=O)CNC(=O)CC23CC4CC(CC(C4)C2)C3)CC1` [Compound 1304, 2-((1R,3R,5S)-Adamantan-1-yl)-N-(2-(4-((2-amino-5-chloropyridin-3-yl)methyl)piperazin-1-yl)-2-oxoethyl)acetamide], the IC50 was above 1500 nM.

In the case of `O=C(CC12CC3CC(CC(C3)C1)C2)NCC(=O)N1CCN(Cc2cc(Cl)ccc2F)CC1` [Compound 1305, 2-((1R,3R,5S)-Adamantan-1-yl)-N-(2-(4-(5-chloro-2-fluorobenzyl)piperazin-1-yl)-2-oxoethyl)acetamide], the IC50 was found to be 360 nM.

`O=C(CC12CC3CC(CC(C3)C1)C2)NCC(=O)N1CCN(Cc2c(F)ccc(Cl)c2F)CC1` [Compound 1306, 2-((1R,3R,5S)-Adamantan-1-yl)-N-(2-(4-(3-chloro-2,6-difluorobenzyl)piperazin-1-yl)-2-oxoethyl)acetamide] displayed a 50% inhibitory concentration (IC50) of 1350 nM.

Molecule `O=C(CC12CC3CC(CC(C3)C1)C2)NCC(=O)N1CCN(Cc2cc(Cl)c(F)cc2F)CC1` [Compound 1307, 2-((1R,3R,5S)-Adamantan-1-yl)-N-(2-(4-(5-chloro-2,4-difluorobenzyl)piperazin-1-yl)-2-oxoethyl)acetamide] gave an IC50 of 370 nM.

For `O=C(CC12CC3CC(CC(C3)C1)C2)NCC(=O)N1CCN(Cc2cc(Cl)ccc2OC(F)(F)F)CC1` [Compound 1309, 2-((1R,3R,5S)-Adamantan-1-yl)-N-(2-(4-(5-chloro-2-(trifluoromethoxy)benzyl)piperazin-1-yl)-2-oxoethyl)acetamide], inhibition was half-maximal at 420 nM (IC50).

Turning to `COC(=O)c1cccc(-c2ccc(O)c(CN3CCN(C(=O)CNC(=O)CC45CC6CC(CC(C6)C4)C5)CC3)c2)c1` [Compound 1310, Methyl 3′-((4-((2-((1R,3R,5S)-adamantan-1-yl)acetyl)glycyl)piperazin-1-yl)methyl)-4′-hydroxy-[1,1′-biphenyl]-3-carboxylate], inhibition was half-maximal at 310 nM (IC50).

Consider `COC(=O)c1ccc(COc2ccccc2CN2CCN(C(=O)CNC(=O)CC3(C)CCCCC3)CC2)cc1` [Compound 1311, Methyl 4-((2-((4-((2-(1-methylcyclohexyl)acetyl)glycyl)piperazin-1-yl)methyl)phenoxy)methyl)benzoate], for which half-maximal inhibition (IC50) required 80 nM.

In the case of `COC(=O)c1ccc(COc2ccccc2CN2CCN(C(=O)CNC(=O)Cc3ccc(F)cc3)CC2)cc1` [Compound 1312, Methyl 4-((2-((4-((2-(4-fluorophenyl)acetyl)glycyl)piperazin-1-yl)methyl)phenoxy)methyl)benzoate], the midpoint of inhibition, the IC50, lay at 600 nM.

Regarding `COC(=O)c1ccc(COc2ccccc2CN2CCN(C(=O)CNC(=O)CC3CC(F)(F)C3)CC2)cc1` [Compound 1315, Methyl 4-((2-((4-((2-(3,3-difluorocyclobutyl)acetyl)glycyl)piperazin-1-yl)methyl)phenoxy)methyl)benzoate], the 50% inhibitory concentration (IC50) was determined as 400 nM.

In turn, `COC(=O)c1ccc(COc2ccccc2CN2CCN(C(=O)CNC(=O)C3CC34CCCCC4)CC2)cc1` (centres unmarked) [Compound 1316, Methyl 4-((2-((4-((spiro[2.5]octane-1-carbonyl)glycyl)piperazin-1-yl)methyl)phenoxy)methyl)benzoate] gave an IC50 of 70 nM.

In turn, `COC(=O)c1ccc(COc2ccccc2CN2CCN(C(=O)CNC(=O)C3CC3(C)C)CC2)cc1` (centres unmarked) [Compound 1317, Methyl 4-((2-((4-((2,2-dimethylcyclopropane-1-carbonyl)glycyl)piperazin-1-yl)methyl)phenoxy)methyl)benzoate] came in with a half-maximal inhibitory concentration (IC50) of 400 nM.

Consider `COC(=O)c1ccc(COc2ccccc2CN2CCN(C(=O)CNC(=O)OC3CCC(F)(F)CC3)CC2)cc1` [Compound 1319, Methyl 4-((2-((4-((((4,4-difluorocyclohexyl)oxy)carbonyl)glycyl)piperazin-1-yl)methyl)phenoxy)methyl)benzoate], for which the IC50 was found to be 310 nM.

The molecule `COC(=O)c1ccc(COc2ccccc2CN2CCN(C(=O)CNC(=O)NC3CCC(F)(F)CC3)CC2)cc1` [Compound 1320, Methyl 4-((2-((4-(((4,4-difluorocyclohexyl)carbamoyl)glycyl)piperazin-1-yl)methyl)phenoxy)methyl)benzoate] gave a half-maximal inhibitory concentration (IC50) above 2000 nM.

Molecule `Nc1ccc(Cl)cc1CN1CCN(C(=O)CNC(=O)CC23CC4CC(CC(C4)C2)C3)CC1` [Compound 1321, 2-((1R,3R,5S)-Adamantan-1-yl)-N-(2-(4-(2-amino-5-chlorobenzyl)piperazin-1-yl)-2-oxoethyl)acetamide] displayed a half-inhibitory concentration (IC50) of 90 nM.

Turning to `COC(=O)c1cccc(Oc2cc(Cl)cc(CN3CCN(C(=O)CNC(=O)CC45CC6CC(CC(C6)C4)C5)CC3)c2)c1` [Compound 1322, Methyl 3-(3-((4-((2-((1R,3R,5S)-adamantan-1-yl)acetyl)glycyl)piperazin-1-yl)methyl)-5-chlorophenoxy)benzoate], it took 11 nM to reach half-maximal inhibition (IC50).

As for `O=C(CC12CC3CC(CC(C3)C1)C2)NCC(=O)N1CCN(Cc2cc(F)c(F)cc2O)CC1` [Compound 1324, 2-((1R,3R,5S)-Adamantan-1-yl)-N-(2-(4-(4,5-difluoro-2-hydroxybenzyl)piperazin-1-yl)-2-oxoethyl)acetamide], the IC50 amounted to 1500 nM.

Molecule `O=C(CC12CC3CC(CC(C3)C1)C2)NCC(=O)N1CCN(Cc2cc(F)cc(F)c2O)CC1` [Compound 1325, 2-((1R,3R,5S)-Adamantan-1-yl)-N-(2-(4-(3,5-difluoro-2-hydroxybenzyl)piperazin-1-yl)-2-oxoethyl)acetamide] came in with an IC50 of 1000 nM.

Consider `O=C(CC12CC3CC(CC(C3)C1)C2)NCC(=O)N1CCN(Cc2cc(Cl)cc(C(F)(F)F)c2)CC1` [Compound 1326, 2-((1R,3R,5S)-Adamantan-1-yl)-N-(2-(4-(3-chloro-5-(trifluoromethyl)benzyl)piperazin-1-yl)-2-oxoethyl)acetamide], for which the midpoint of inhibition, the IC50, lay at 920 nM.

In the case of `O=C(CC12CC3CC(CC(C3)C1)C2)NCC(=O)N1CCN(Cc2cc(Cl)cc(F)c2F)CC1` [Compound 1327, 2-((1R,3R,5S)-Adamantan-1-yl)-N-(2-(4-(5-chloro-2,3-difluorobenzyl)piperazin-1-yl)-2-oxoethyl)acetamide], the concentration for half-maximal inhibition (IC50) was found to be 670 nM.

As for `COC(=O)c1ccc(COc2ccccc2CN2CCN(C(=O)CNC(=O)C3(C)CCC(F)(F)CC3)CC2)cc1` [Compound 1328, Methyl 4-((2-((4-((4,4-difluoro-1-methylcyclohexane-1-carbonyl)glycyl)piperazin-1-yl)methyl)phenoxy)methyl)benzoate], the concentration for half-maximal inhibition (IC50) is 250 nM.

The same experiment, now with this note: read-out: IC50.
As to `O=C(CC12CC3CC(CC(C3)C1)C2)NCC(=O)N1CCN(Cc2cc(Cl)ccc2C(F)(F)F)CC1` [Compound 1308, 2-((1R,3R,5S)-Adamantan-1-yl)-N-(2-(4-(5-chloro-2-(trifluoromethyl)benzyl)piperazin-1-yl)-2-oxoethyl)acetamide], the IC50 is above 2000 nM.

On to `COC(=O)c1ccc(Oc2cc(Cl)cc(CN3CCN(C(=O)CNC(=O)CC45CC6CC(CC(C6)C4)C5)CC3)c2)cc1` [Compound 1323, Methyl 4-(3-((4-((2-((1R,3R,5S)-adamantan-1-yl)acetyl)glycyl)piperazin-1-yl)methyl)-5-chlorophenoxy)benzoate], for which the IC50 came to 15 nM.

For the origin of these results see US11629139B2 (priority 2017, dated 2023).
